Source: the NIST ThermoML archive (doi:10.1007/s10765-015-1980-6)

Assay: xn = mol fraction of the nth substance listed
Settings: 101 kPa, Liquid; for speed of sound: Frequency=2 MHz; for mass density: Pycnometric method

OCCOCCO [diethylene glycol] + CCCCO
Settings | mass density, 298.15 K [kg/m3] | mass density, 303.15 K [kg/m3] | mass density, 308.15 K [kg/m3] | mass density, 313.15 K [kg/m3] | speed of sound, 298.15 K [m/s] | speed of sound, 303.15 K [m/s] | speed of sound, 308.15 K [m/s] | speed of sound, 313.15 K [m/s]
x1 = 0.1095 | 840.7 | 837 | 833.4 | 829.7 | 1265.9 | 1249.5 | 1232.3 | 1215.9
x1 = 0.2096 | 872.6 | 868.9 | 865.3 | 861.6 | 1294 | 1277.8 | 1261.3 | 1245.8
x1 = 0.2955 | 899.7 | 896.1 | 892.4 | 888.8 | 1320.9 | 1305.3 | 1289 | 1273.5
x1 = 0.3874 | 928.5 | 924.9 | 921.2 | 917.6 | 1350.8 | 1335.3 | 1318.7 | 1303.2
x1 = 0.5122 | 967.1 | 963.5 | 959.9 | 956.3 | 1392.3 | 1377.7 | 1361.9 | 1347.4
x1 = 0.592 | 991.5 | 988 | 984.4 | 980.9 | 1419.3 | 1406 | 1391.6 | 1378
x1 = 0.677 | 1017.3 | 1013.7 | 1010.2 | 1006.7 | 1448.9 | 1436.8 | 1424.2 | 1411.6
x1 = 0.7986 | 1053.5 | 1050.1 | 1046.6 | 1043.1 | 1492.7 | 1481.1 | 1470.1 | 1459.2
x1 = 0.896 | 1082.3 | 1078.8 | 1075.4 | 1072 | 1531.3 | 1520.6 | 1510 | 1500
x1 = 1 | 1112.7 | 1109.3 | 1105.9 | 1102.5 | 1579.3 | 1568 | 1557.3 | 1546.1

OCCOCCO [diethylene glycol] + CCC(C)O
speed of sound [m/s], Linear variable-path acoustic interferometer
Settings | x1 = 0.1097 | x1 = 0.2096 | x1 = 0.2951 | x1 = 0.3876 | x1 = 0.512 | x1 = 0.592 | x1 = 0.6771 | x1 = 0.7984 | x1 = 0.8962 | x1 = 1
298.15 K | 1243.1 | 1273.6 | 1300.5 | 1330.6 | 1372 | 1400 | 1431.4 | 1480.5 | 1525.1 | 1579.3
303.15 K | 1225.2 | 1256.7 | 1283.5 | 1313.5 | 1356.2 | 1386.1 | 1418.2 | 1468.2 | 1513.4 | 1568
308.15 K | 1207.6 | 1239.8 | 1266 | 1296 | 1339.4 | 1370.1 | 1403 | 1454.1 | 1501.7 | 1557.3
313.15 K | 1190.1 | 1222.7 | 1249.1 | 1279.3 | 1323.4 | 1354.9 | 1389.2 | 1441.2 | 1490 | 1546.1

mass density [kg/m3]
Settings | x1 = 0.1097 | x1 = 0.2096 | x1 = 0.2951 | x1 = 0.3876 | x1 = 0.512 | x1 = 0.592 | x1 = 0.6771 | x1 = 0.7984 | x1 = 0.8962 | x1 = 1
298.15 K | 838.7 | 871.6 | 899.5 | 929.3 | 968.6 | 993.4 | 1019.2 | 1055.1 | 1083.2 | 1112.7
303.15 K | 834.7 | 867.7 | 895.7 | 925.5 | 964.9 | 989.8 | 1015.8 | 1051.8 | 1079.9 | 1109.3
308.15 K | 830.7 | 863.9 | 891.9 | 921.8 | 961.2 | 986.2 | 1012.3 | 1048.4 | 1076.6 | 1105.9
313.15 K | 826.8 | 860.1 | 888.1 | 918 | 957.6 | 982.6 | 1008.9 | 1045.1 | 1073.3 | 1102.5

OCCCCO [1,4-butanediol] + OCCOCCO
speed of sound [m/s], Linear variable-path acoustic interferometer
Settings | x2 = 0 | x2 = 0.108 | x2 = 0.1977 | x2 = 0.2897 | x2 = 0.4096 | x2 = 0.509 | x2 = 0.6116 | x2 = 0.6912 | x2 = 0.7992 | x2 = 0.8838
298.15 K | 1601.6 | 1568.1 | 1549.9 | 1543.5 | 1546.2 | 1552.2 | 1558.9 | 1564.5 | 1571.3 | 1575.3
303.15 K | 1589.3 | 1558.9 | 1542 | 1535.7 | 1538.6 | 1544 | 1550.2 | 1555.3 | 1561.2 | 1564.6
308.15 K | 1577.7 | 1549.8 | 1534.4 | 1528.2 | 1531.1 | 1536.3 | 1541.8 | 1546.4 | 1551.7 | 1554.7
313.15 K | 1565.6 | 1540.6 | 1526.6 | 1520.3 | 1523.2 | 1528.1 | 1533.1 | 1537.2 | 1541.7 | 1544.4

mass density [kg/m3]
Settings | x2 = 0 | x2 = 0.108 | x2 = 0.1977 | x2 = 0.2897 | x2 = 0.4096 | x2 = 0.509 | x2 = 0.6116 | x2 = 0.6912 | x2 = 0.7992 | x2 = 0.8838
298.15 K | 1012.6 | 1019.9 | 1026.6 | 1035 | 1047 | 1057.6 | 1069.4 | 1078.5 | 1090.6 | 1100
303.15 K | 1009.6 | 1017.1 | 1024 | 1032.3 | 1044.3 | 1054.9 | 1066.5 | 1075.6 | 1087.6 | 1096.8
308.15 K | 1006.7 | 1014.4 | 1021.4 | 1029.6 | 1041.6 | 1052.1 | 1063.7 | 1072.6 | 1084.5 | 1093.6
313.15 K | 1003.7 | 1011.7 | 1018.7 | 1027 | 1038.9 | 1049.4 | 1060.8 | 1069.6 | 1081.3 | 1090.3
